Laboratory results: patent US20220202783A1, “Use Of ADAM9 Inhibitor As Immunomodulator” (China Medical University, priority 2019, published 2022)

What was measured:
[1] = test system: Panc-1; assay: cytotoxicity on pancreatic cancer cells, Panc-1; type: cell-based; details: Homo sapiens
Protocol: (§1) In addition, the IC50 values (unit is μM) of the compound SW1 and the compound SW2 on pancreatic cancer cells were measured in the experiment.

[2] = test system: lung cancer cells (Bm7brmx2-2nd); assay: cytotoxicity assay in Bm7brmx2-2nd cells; type: cell-based; design: key to effect of inhibiting tumor cell growth: “+” represents that the compound has the effect of inhibiting tumor cell growth
Outline: (§2)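 Cells are treated with each Formula (I) compound, viability loss is measured, and the IC50 is derived.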

[3] = molecular target: ADAM17 (Homo sapiens, UniProt P78536); assay: inhibition of ADAM17 activity; type: biochemical; details: different concentrations
[4] = test system: lung cancer cells (H1299); assay: cytotoxicity assay in H1299 cells; type: cell-based; design: key to effect of inhibiting tumor cell growth: “+” represents that the compound has the effect of inhibiting tumor cell growth; details: for effect of inhibiting tumor cell growth: H1299; for IC50: Homo sapiens, NCI-H1299
Outline: as §2

[5] = test system: lung cancer cells (A549); assay: cytotoxicity assay in A549 cells; type: cell-based; design: key to effect of inhibiting tumor cell growth: “+” represents that the compound has the effect of inhibiting tumor cell growth; details: for IC50: Homo sapiens
Outline: as §2

[6] = test system: CDCP1 in Bm7 lung cancer cells; assay: Western blot of ADAM9 and CDCP1 expression in Bm7 cells; type: cell-based; details: anchorage-free culture
Protocol: Please refer to FIG. 1A, FIG. 1B and Table 2, which show the analysis results of the compound of Formula (I) inhibiting ADAM9 activity. In FIG. 1A, Bm7 lung cancer cells were treated with the derivatives of the compound 6X-0310, and then cultured under anchorage-free culture condition. The expressions of ADAM9 and CDCP1 in Bm7 lung cancer cells were detected by Western blot, in which EF1α is an internal control, and mock represents Bm7 lung cancer cells without treatment. […] In the experiment, the compounds of Formula (I) of Example 1 to Example 32 were further performed cytotoxicity assay to measure the IC50 value of the compounds of Formula (I) of the present disclosure in lung cancer cell lines.

[7] = test system: human esophageal cancer cells CE146T; assay: cytokine RNA expression by RT-qPCR, CE146T; type: cell-based; details: 5 μM, 24 hours
Protocol: (§3) We further analyzed whether the treatment of the ADAM9 inhibitor can stimulate tumor cells to secrete cytokines to activate the anti-tumor immunity of the ADAM9 inhibitor. In the experiment, human colon cancer cells SW620 and human pancreatic cancer cells PANC-1 were treated with 12.5 μM of the compound SW1, and human esophageal cancer cells C[…] were treated with 5 μM of the compound SW1. After 24 hours, the cells were collected and the RNA expression levels of CXCL10, CXCL11, CXC3CL1 and IFNB were detected by RT-qPCR. CXCL10, CXCL11 and […] are cytokines that promote the immune response of CD8^+ T cells, and IFNB is a cytokine with anti-cancer effects. Please refer to FIGS. 10A, 10B and 10C, which show the analysis results of the ADAM9 inhibitor stimulated tumor cells to secrete cytokines.

[8] = test system: TC1-WT lung cancer cells; assay: colony-forming assay, TC1; type: cell-based; details: 10 μM
Protocol: To further test the planting efficiency of tumor cells treated with the compound SW1 and the compound SW2, in the experiment, control Bm7 lung cancer cells (treated with shGFP) and ADAM9 KO Bm7 lung cancer cells (treated with shADAM9) were treated with 20 μM of the compound SW1 or the compound SW2 respectively, and TC1-wild-type (WT) lung cancer cells and TC1-ADAM9 KO lung cancer cells were treated with 10 μM of the compound SW1 or the compound SW2 respectively. Then colony-forming assay was used to confirm the planting efficiency of each test group. Please refer to FIGS. 2D and 2E, wherein mock represents the tumor cell lines without treatment of the compound SW1 or the compound SW2. Representative images of colony-forming assay are shown at the bottom, and data are means±SD of 6 separate wells.

[9] = cytotoxicity assay in 293 cells; type: cell-based; design: key to effect of inhibiting tumor cell growth: “+” represents that the compound has the effect of inhibiting tumor cell growth; details: 293
[10] = test system: TC1-WT lung cancer cells; assay: subcutaneous lung tumor mouse model; type: in vivo, C57BL/6 mice; details: 10 mg/kg subcutaneous injection once a day, Day 15 to Day 24, vs DMSO control
Protocol: In order to further evaluate whether the treatment of ADAM9 inhibitors will give the same results as the ADAM9 gene knockout, TC1-WT lung cancer cells were injected subcutaneously into C57BL/6 mice with normal immunity to establish a subcutaneous lung tumor mouse model, and the ADAM9 inhibitor (the compound SW1, 10 mg/kg) was treated by subcutaneous injection. From Day 15 to Day 24, the compound SW1 was injected once a day for […]. The tumor volume was observed on Day 12, Day 20 and Day 27, respectively. […] The control group was injected with DMSO as a control for the treatment of the ADAM9 inhibitor.

[11] = test system: human pancreatic cancer cells PANC-1; assay: cytokine RNA expression by RT-qPCR, PANC-1; type: cell-based; details: 12.5 μM, 24 hours
Protocol: as §3

[12] = test system: human colon cancer cells SW620; assay: cytokine RNA expression by RT-qPCR, SW620; type: cell-based; details: 12.5 μM, 24 hours
Protocol: as §3

[13] = test system: Pan18-GFP-Luc; assay: cytotoxicity on pancreatic cancer cells, Pan18-GFP-Luc; type: cell-based; details: Pancreatic cancer cell
Protocol: as §1

[14] = test system: TC1 subcutaneous lung tumor; assay: co-treatment of ADAM9 inhibitor and checkpoint inhibitor, CD8+ T cells to TReg ratio in tumors; type: in vivo, mice; details: co-treated with anti-PDL1 antibody; vs vehicle, SW1 alone or anti-PDL1 antibody alone
Protocol: To further analyze whether the ADAM9 inhibitor and the checkpoint inhibitor have a synergistic effect, in the experiment, TC1 subcutaneous lung tumor mice were treated alone with the ADAM9 inhibitor (the compound SW1), the checkpoint inhibitor (anti-PDL1 antibody) or co-treated with the ADAM9 inhibitor (the compound SW1) and the checkpoint inhibitor (anti-PDL1 antibody), and the ratio of CD8^+ T cells and regulatory T cells (TReg) in tumors of TC1 subcutaneous lung tumor mice was analyzed. The experiment also included a control group treated with vehicle (DMSO).

Sequence of ADAM17 (P78536 215-824, species assumed): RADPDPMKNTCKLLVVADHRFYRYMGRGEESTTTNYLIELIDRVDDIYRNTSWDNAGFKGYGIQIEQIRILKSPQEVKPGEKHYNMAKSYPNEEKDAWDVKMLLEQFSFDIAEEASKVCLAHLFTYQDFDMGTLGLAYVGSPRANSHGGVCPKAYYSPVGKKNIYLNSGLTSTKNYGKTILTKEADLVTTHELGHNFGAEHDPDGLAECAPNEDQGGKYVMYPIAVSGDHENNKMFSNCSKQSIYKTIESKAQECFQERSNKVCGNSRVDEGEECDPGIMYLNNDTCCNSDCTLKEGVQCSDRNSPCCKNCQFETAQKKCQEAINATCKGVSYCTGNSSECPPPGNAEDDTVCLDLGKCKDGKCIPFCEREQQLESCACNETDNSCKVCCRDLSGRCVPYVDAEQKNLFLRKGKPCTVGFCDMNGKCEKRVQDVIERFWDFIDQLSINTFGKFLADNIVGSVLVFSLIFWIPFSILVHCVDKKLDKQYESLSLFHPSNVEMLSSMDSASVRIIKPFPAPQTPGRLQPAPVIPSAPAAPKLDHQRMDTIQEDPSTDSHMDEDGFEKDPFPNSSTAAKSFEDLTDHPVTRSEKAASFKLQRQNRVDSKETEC

For `O=C1c2ccccc2C(=O)N1CCc1csc(Nc2nc(CCN3C(=O)c4ccccc4C3=O)cs2)n1` [SW1], the IC50 [1] was 424 µM, the IC50 [2] was 43.5 µM and the “effect of inhibiting tumor cell growth” value [2] was “+”. The “inhibition of ADAM17 activity” value [3] was “no inhibitory effects”, the “effect of inhibiting tumor cell growth” value [4] was “+” and the IC50 [4] was 76.9 µM. The “effect of inhibiting tumor cell growth” value [5] was “+”, the IC50 [5] was 434 µM and the “expression of CDCP1” value [6] was “reduce the expression of CDCP1”. The “RNA expression levels of CXCL10, CXCL11, CXC3CL1 and IFNB” value (from here on “RNA expression levels of CXCL10, CXCL11”) [7] was “increase the expressions of CXCL10, CXCL11, CXC3CL1 and IFNB”, the “planting efficiency, colony-forming assay” value [8] was “greatly reduce the planting efficiency” and the “effect of inhibiting tumor cell growth” value [9] was “+”. The “tumor growth (tumor volume)” value [10] was “reduces tumor growth”, the “RNA expression levels of CXCL10, CXCL11” value [11] was “increase the expressions of CXCL10, CXCL11, CXC3CL1 and IFNB” and the “RNA expression levels of CXCL10, CXCL11” value [12] was “increase the expressions of CXCL10, CXCL11, CXC3CL1 and IFNB”. For the same molecule, the IC50 [13] was 0.3 µM and the “ratio of CD8+ T cells to regulatory T cells (TReg) in tumors” value [14] was “increased significantly”.

For `O=C(Nc1nc(CCN2C(=O)c3ccccc3C2=O)cs1)c1cc2ccccc2s1` [SW2], the IC50 [1] was 34.2 µM, the IC50 [2] was 45.1 µM and the “effect of inhibiting tumor cell growth” value [2] was “+”. For the same molecule, the “inhibition of ADAM17 activity” value [3] was “no inhibitory effects”, the “effect of inhibiting tumor cell growth” value [4] was “+” and the IC50 [4] was 32 µM. For the same molecule, the “effect of inhibiting tumor cell growth” value [5] was “+”, the IC50 [5] was 458 µM and the “expression of CDCP1” value [6] was “reduce the expression of CDCP1”. The “planting efficiency, colony-forming assay” value [8] was “greatly reduce the planting efficiency”, the “effect of inhibiting tumor cell growth” value [9] was “+” and the IC50 [13] was 112 µM.
